Experimental data: a melting point compilation (Tetko et al.; mined from patent text by program, amines drawn as free bases though some values may be those of a salt)

First: CNC(=O)N=C(NC(=O)Nc1ccc(Cl)cc1)OC
Second: CC(C)(C)OC(=O)Nc1ccc(I)cc1
The melting point of the first is higher: 169 to 171 °C for the first, 148 to 149 °C for the second.

Compared with `NC(=O)c1nnsc1Nc1ccccc1`, `O=C(c1ccccc1)n1ccc2ccccc21` is lower in melting point: 195 to 197 °C for the first, 54 to 55 °C for the second.

First: O=C(CCC1CCCCCCCCCCC1)C1=C(O)CSC1=O
Second: O=c1ccc(N2CCC(CCCO)CC2)n[nH]1
The melting point of the first is lower: 60 to 62 °C for the first, 174 °C for the second.

First: COc1cccc(C(=O)c2sc(NC(=O)c3ccncc3)nc2-c2ccco2)n1
Second: COc1ccc([C@H](C)NC(=O)COc2cc(C(F)(F)F)c3c(-c4ccccc4)nn(C)c3n2)cc1
The melting point of the first is higher: 247 to 250 °C for the first, 172 to 174 °C for the second.

Compared with `CCCCOCCOc1ccc(-c2ccc3c(c2)C=C(C(=O)Nc2ccc(SCc4ncon4)cc2)CCN3CC(C)C)cc1`, `CCOC(=O)CCCOc1ccc(NC(=O)c2ccc(C(C)(C)C)cc2)cc1` is lower in melting point: 112 to 115 °C for the first, 100 to 101 °C for the second.

First: O=C(c1ccc(Cl)cc1)c1c(N2C(=O)c3ccccc3C2=O)sc(-c2ccccc2)c1CBr
Second: Cc1c(-c2ccccc2)oc2c(C(=O)NCCCN3CCN(c4ccc(Cl)cc4)CC3)cccc2c1=O
The melting point of the first is lower: 160 to 161 °C for the first, 200 to 204 °C for the second.

First: CCCCCCCCCCCCCCCC(=O)Nc1nc(=O)n(C2OC(C)C(O)C2O)cc1F (stereo not given)
Second: CCCCc1nc2c(N)nc3ccc(OCC(=O)N(CC)CC)cc3c2n1C
The melting point of the first is lower: 93 to 95 °C for the first, 186 to 188 °C for the second.

First: COc1ccc2c(c1)C13CCN(C)C(C2)C1(O)CCOC3 (single isomer, unassigned; (+))
Second: COc1c(-c2cc3c(s2)CCC(CO)C3)ccc2c(=O)c(C(=O)O)cn(C3CC3)c12 (stereo not given)
The melting point of the first is lower: 108 to 110 °C for the first, 218 to 219 °C for the second.

First: Cn1cnc2c([N+](=O)[O-])cc(Br)cc21
Second: O=[N+]([O-])c1ccc2c(c1)ncn2-c1ccccc1
The melting point of the first is higher: 198 °C for the first, 129 to 131 °C for the second.

First: COC(=O)C1=C(C)NC(C)=C(C(=O)OC)C1c1ccc(OCC(=O)NCCO[N+](=O)[O-])c(OC)c1
Second: CC1=C(C(=O)N2CCCCC2)C(c2ccccc2[N+](=O)[O-])C(S(C)(=O)=O)=C(C)N1 (stereo not given)
The melting point of the first is lower: 149 to 150 °C for the first, 275 to 276 °C for the second.

First: Cn1c(-c2ccc(Cl)c(S(N)(=O)=O)c2)csc1=Nc1ccccc1
Second: COC(=O)CCc1cc2c(Cl)c(Cl)ccc2n1S(=O)(=O)c1ccccc1
The melting point of the first is higher: 168 to 171 °C for the first, 142 °C for the second.

First: CN=C(NC#N)C1=CC2(CCOCC2)Oc2ccc([N+](=O)[O-])cc21
Second: O=[N+]([O-])c1ccc2c(c1)OCC2
The melting point of the first is higher: 293 to 294 °C for the first, 71 to 72 °C for the second.

First: CN(C)C1(C(N)=O)CCCCC1
Second: O=C1N=C2CCCCN2C12CCNCC2
The melting point of the first is lower: 65 to 69 °C for the first, 220 °C for the second.

Going from `O=c1[nH]c2ccc(Cl)cc2n1-c1cccc(Cl)c1` to `O=C(O)c1ccccc1Sc1c(O)c2ccc(Cl)cc2[nH]c1=O`, the melting point rises from 112 °C to greater than 300 °C.

Compared with `Cc1c(C)c2c(c(C)c1NCc1ccccc1)C(c1cccc(C3OCCO3)c1)CO2` (stereo not given), `Cc1c(C)n(CCc2ccccc2)c(C)c(C(=O)Nc2ccccc2)c1=O` is higher in melting point: 97 to 99 °C for the first, 191 to 193 °C for the second.

Compared with `O=[N+]([O-])c1cn2c(n1)OC[C@@H](OCc1ccc(Cl)nc1)C2`, `Cn1c(=O)n(CC2(C)Cn3cc([N+](=O)[O-])nc3O2)c2ccccc21` (stereo not given) is higher in melting point: 191 to 193 °C for the first, 203 to 204 °C for the second.

First: CN1CCN(Cc2ccc(-c3cccc(-c4ccnc5c(C(=O)c6cccs6)cnn45)c3)cc2)CC1
Second: O=C(Nc1ccc(CN2CCCCC2)cc1)c1ccc2ccc(-c3ccccc3)cc2c1
The melting point of the first is higher: 199 to 202 °C for the first, 177 to 178 °C for the second.

`CC(C)(C)OC(=O)N1CCC(c2ccc(N3C[C@H](CO)OC3=O)cc2F)CC1` and `Fc1cccc(-c2cn([C@H]3CN4CCC3CC4)nn2)c1` cannot be ordered by melting point: 120 to 122 °C for the first, 120 °C for the second.

Compared with `CCn1cc(Cl)c(=O)[nH]c1=O`, `COc1cccc2c(=O)c3c(Cl)ccc([N+](=O)[O-])c3[nH]c12` is higher in melting point: 217 to 220 °C for the first, 315 to 320 °C for the second.

First: O=C(Oc1cc([N+](=O)[O-])ccc1[N+](=O)[O-])c1cc2ccccc2oc1=O
Second: O=C(c1ccc(Cc2c(Cl)cc([N+](=O)[O-])cc2Cl)cc1)c1cnc(Cl)c(Cl)c1
The melting point of the first is higher: 223 to 225 °C for the first, 129 to 131 °C for the second.

First: CCC(S)=C1SC(=S)N(c2ccc(Cl)cc2)C1=O
Second: Cc1ccc(C[C@H]2NC(=O)CN(Cc3ccccc3)C2=O)cc1C
The melting point of the first is lower: 163 to 165 °C for the first, 191 to 192 °C for the second.

Compared with `COc1cc(Nc2nccc(Nc3ccc(OCCCO)cc3)n2)cc(OC)c1OC`, `C=C(C)COc1ccc(C(=O)C=Cc2ccc(OC)cc2OC)c(O)c1` is higher in melting point: 69 °C for the first, 106 to 107 °C for the second.

First: CNS(=O)(=O)Cc1ccc(NN=CCSc2ccccc2)cc1
Second: CNC1(c2ccccc2Cl)C(=O)N(S(=O)(=O)c2ccc(NC(=O)c3ccccc3Cl)cc2)c2ccc(Cl)cc21 (stereo not given)
The melting point of the first is lower: 110 to 112 °C for the first, 221 to 222 °C for the second.

`O=C(c1ccc(-c2cnc3c(c2)N(Cc2cc(Cl)ccc2Cl)C(=O)CN3)cc1)N1CCC(N2CCCC2)CC1` and `COc1ccc(-n2cc(/C=C(\C#N)C(=O)NS(C)(=O)=O)c(-c3ccc(Cl)c(F)c3)n2)cc1Cl` cannot be ordered by melting point: greater than 200 °C for the first, 280 to 282 °C for the second.

First: COc1cc(OCc2cn(-c3ccc(C(F)(F)F)cn3)nc2C)ccc1CCC(=O)O
Second: Cc1cc(Oc2ccc(C(F)(F)F)cc2Cl)cc(C)c1NC(=O)C1C(=O)N(C)C(=S)N(C)C1=O
The melting point of the first is lower: 158 to 159 °C for the first, 171 to 173 °C for the second.

First: C=Cc1cc(Br)c(OC(C)=O)c(Br)c1
Second: CC(=O)OCCOCn1cnc2c(Cl)nc(Cl)nc21
The melting point of the first is lower: 76 °C for the first, 96 to 99 °C for the second.

Compared with `Cc1nnc(-c2ccnc(NC(=O)NCc3ccccn3)c2)o1`, `Cc1nc(N2CCN(Cc3ccccc3)C2=NC#N)sc1C(=O)NCc1ccccc1` is higher in melting point: 202 to 203 °C for the first, 226 to 228 °C for the second.

First: O=C1CCc2ccc(O)cc2O1
Second: CC(C)CC1=CC(c2cccc([N+](=O)[O-])c2)C2=C(CCCC2=O)N1 (stereo not given)
The melting point of the first is lower: 133 to 136 °C for the first, 158 to 160 °C for the second.

First: CSc1c(N)nc(NCCCOC(C)C)nc1Cl
Second: COC(=O)CCSCC(=O)c1ccc2c(c1)CC(=O)N2
The melting point of the first is higher: 245 °C for the first, 106 to 108 °C for the second.

Compared with `Cn1ccc(S(=O)(=O)NC(C)(C)C)c1`, `CC(=O)N[C@@H]1CCCC[C@H]1NS(=O)(=O)c1ccc(C)cc1` (relative stereo) is higher in melting point: 134 to 135 °C for the first, 174 to 176 °C for the second.

First: c1cc2c(Nc3ccc4[nH]ncc4c3)ncnc2cn1
Second: C#CCN(Cc1ccc2nc[nH]c(=O)c2c1)c1ccc(C(C)=O)cc1
The melting point of the first is higher: 258 °C for the first, 197 to 199 °C for the second.

First: CC(O)Cn1cc(C2=C(c3cn(CC(C)O)c4ccccc34)C(=O)NC2=O)c2ccccc21 (stereo not given)
Second: CCOC(=O)C(N=Nc1ccccc1C(=O)c1ccccn1)NC(=O)CCl (stereo not given)
The melting point of the first is lower: 133 to 135 °C for the first, 160 to 162 °C for the second.

First: CN[C@@H]1COc2cc(Cl)cc(-c3ccc(Cl)cc3C)c2O1
Second: CCOC(=O)N(C)N(C)C(=S)Nc1cc(Cl)cc(Cl)c1
The melting point of the first is lower: 110 °C for the first, 147 to 149 °C for the second.

First: N#Cc1nn(-c2c(Cl)cc(C(F)(F)F)cc2Cl)c(NCc2ccncc2)c1SCF
Second: Cc1c(O)c(C)c2nc(COc3ccc(CC4SC(=O)NC4=O)cc3)n(C)c2c1C (stereo not given)
The melting point of the first is lower: 204 °C for the first, 240 to 244 °C for the second.

First: CC(=O)N[C@@H](CCC(=O)O)C(N)=O
Second: Cc1oc(-c2ccccc2)nc1COc1ccc2cc(CCCCc3nnn[nH]3)oc2c1
The melting point of the first is lower: 85 to 87 °C for the first, 114 to 115 °C for the second.
